Here are results for 1 compound from article PMC2994021, “Isolation of cytoplasmic NADPH-dependent phenol hydroxylase and catechol-1,2-dioxygenase from Candida tropicalis yeast” (Interdisciplinary Toxicology, 2010).

The experiment deals with T1, NADPH-dependent phenol hydroxylase.
T1 construct: native enzyme purified from cytosol of phenol-grown yeast (DEAE-Sepharose, PEG 6000, Sepharose 4B), close to homogeneity
Briefly: HPLC of phenol consumption, Michaelis-Menten kinetics. The format is biochemical, Candida tropicalis. The following applies: with NADPH; same Km from catechol formation; read-out: apparent Km.

Take `Oc1ccccc1` [phenol]: the Michaelis constant (Km) (in general, the concentration of substrate that gives half-maximal velocity) is 450 µM.
